Data: patent US12491185B2, “Inhibitors of mPTP” (NRG Therapeutics Ltd, priority 2023, dated 2025)

system: mPTP; experiment: mPTP activity (Ca2+ retention) assay in isolated rat liver mitochondria; format: biochemical; conditions: examples tested by different contract research organisations, believed comparable
Excerpt: Pharmacological inhibition or modulation of the mPTP can be measured in well characterised ‘Ca^2+ retention’ assays performed in isolated mitochondria. In vitro, isolated mitochondria rapidly sequester exogenous Ca^2+ until the intramitochondrial Ca^2+ concentration reaches the threshold for mPTP activation. Once the pore is activated, mitochondrial integrity is compromised and the stored Ca^2+ is released. The distribution of Ca^2+ between extra- and intra-mitochondrial compartments can be measured in real time with the use of membrane-impermeant Ca^2+ sensitive fluorescent dyes. Depending on the configuration of the assay, inhibition or modulation of the mPTP either delays the opening of the pore or increases the concentration of Ca^2+ required to induce mPTP opening.
MPTP activity was measured in mitochondria freshly isolated from female Sprague Dawley (250 to 300 gram) rat livers using the following method. Cervical dislocation was performed on the rat. The liver was then perfused in-situ with −40 ml cold Dulbecco's Phosphate Buffered Saline (DPBS) prior to dissection and transferred into 30 ml Isolation Buffer (250 mM Sucrose, 10 mM KCl, 1 mM EGTA, 1 mM EDTA, 25 mM HEPES, adjusted to pH 7.5 with 1M NaOH). Each lobe of the liver was then removed from the buffer, minced using tweezers and a scalpel into −5 mm pieces then transferred into a 50 ml Potterton dounce homogenization tube on ice containing 30 ml ice-cold centrifugation buffer (300 mM Trehalose, 25 mM HEPES, 1 mM EGTA, 1 mM EDTA, 10 mM KCl, adjusted to pH 7.5 with 1M NaOH and supplemented with 0.1% bovine serum albumin (BSA) and complete protease inhibitor cocktail (one tablet of inhibitor per 50 mls of buffer). Homogenisation was carried out using a teflon pestle at 1800 rpm. The slurry was centrifuged at 800 g for 10 min at 4° C., then the supernatant centrifuged at 10,000 g for 10 min. The pellet was washed once with FLIPR assay buffer (75 mM Mannitol, 25 mM Sucrose, 5 mM Potassium Phosphate Monobasic, 20 mM Tris base, 100 mM KCl, 0.1% BSA adjusted to pH 7.4 with 5M HCl) centrifuged again, then resuspended in FLIPR assay buffer to a concentration of 8.8 mg/ml protein.
Tested compounds (10 mM stock in DMSO) were serially diluted in DMSO in half log steps to generate 10 test concentrations (final concentrations in assay 30 μM to 1 nM). An intermediate dilution of 5 μl DMSO samples into 247 μl FLIPR assay buffer was carried out prior to transfer of 5 μl into duplicate wells of a 384 well polypropylene assay plate. Control wells were 0.5% (v/v) DMSO and 5 μM cyclosporin A.
A stock mitochondria/Fluo5N assay solution was prepared in 5.6 ml FLIPR assay buffer (at RT) supplemented with succinate disodium salt (10 mM), rotenone (1 μM), Fluo5N pentapotassium salt (2 μM) and 1 ml mitochondria suspension, then transferred (15 μl) into the assay plate containing test compounds and incubated for 10 min at RT. Assay plates were processed for fluorescence detection on either a FLIPR Tetra (Molecular Devices) or CLARIOstar (BMG) plate reader. For kinetic fluorescence detection on the FLIPR, dye fluorescence was measured every 3 sec for a total of 10 min. After 12 sec, a 2.5 μl bolus of CaCl2 (75 μM) was added from a source plate containing 675 μM CaCl2 in FLIPR assay buffer. Alternatively, the 2.5 μl addition of CaCl2 was performed using a Viaflow 384, plates were incubated at RT for 10 min, and dye fluorescence measured after 10 min on the CLARIOstar plate reader. pIC50 values for tested compounds were calculated using the fluorescence value collected at the 10 min timepoint on either plate reader, with % inhibition calculated using the DMSO control and cyclosporin A values as 0 and 100% respectively.

mPTP Rat liver pIC50	Compound
<4.57	O=C(NC[C@H](Cc1ccc(F)cc1F)C1CC1)c1cnc(=O)[nH]c1 [Example 147]
6.58	O=C(NCC1(Cc2cc(F)c(F)cc2F)CCC1)c1cncc(=O)[nH]1 [Example 148]
5.88	O=C(NC[C@H](Cc1ccc(F)c(F)c1)C1CC1)c1cncc(=O)[nH]1 [Example 151]
5.54	O=C(NC[C@H](Cc1ccc(F)cc1F)C1CC1)c1cncc(=O)[nH]1 [Example 154]
5.33	O=C(NC[C@H](Cc1cc(F)ccc1F)C1CC1)c1ccc(=O)[nH]n1 [Example 155]
5.33	O=C(NC[C@H](Cc1cc(F)ccc1F)C1CC1)c1cncc(=O)[nH]1 [Example 158]
5.26	CCc1cccc(CC2(CNC(=O)c3nn(C)c(=O)[nH]3)CCC2)c1 [Example 162, N-((1-(3-ethylbenzyl)cyclobutyl)methyl)-1-methyl-5-oxo-4,5-dihydro-1H-1,2,4-triazole-3-carboxamide]
5.38	CC[C@H](CNC(=O)c1nccc(=O)[nH]1)Cc1ccc(F)cc1F [Example 163]
6.56	CCC(CNC(=O)c1nn(C)c(=O)[nH]1)Cc1ccc(F)c(F)c1 (centres unmarked) [Example 164]
<4.57	O=C(NCC1(Cc2cc(F)cc(F)c2)CCC1)c1cncc(=O)[nH]1 [Example 165]
5.7	Cc1cc(F)ccc1CC1(CNC(=O)c2cncc(=O)[nH]2)CCC1 [Example 166]
<4.57	O=C(NCC1(Cc2cccc(F)c2)CCC1)c1cnn[nH]1 [Example 167]
6.07	Cc1cc(F)ccc1CC1(CNC(=O)c2nccc(=O)[nH]2)CCC1 [Example 168, N-((1-(4-fluoro-2-methylbenzyl)cyclobutyl)methyl)-6-oxo-1,6-dihydropyrimidine-2-carboxamide]
<4.57	CCC(Cc1ccc(F)cc1F)CN(C)C(=O)c1nccc(=O)[nH]1 (centres unmarked) [Example 169]
5.65	O=C(NCC1(Cc2ccc(F)cc2F)CCC1)c1cnn[nH]1 [Example 170]
4.87	O=C(NCC1(Cc2cccc(F)c2)CCC1)c1nnc[nH]1 [Example 171]
5.41	CCC(CNC(=O)c1nn(C)c(=O)[nH]1)Cc1ccc2c(c1)CCO2 (centres unmarked) [Example 172]
<4.57	Cn1c(C(=O)NCC2(Cc3ccc(F)cc3F)CCC2)n[nH]c1=O [Example 173, N-((1-(2,4-difluorobenzyl)cyclobutyl)methyl)-4-methyl-5-oxo-4,5-dihydro-1H-1,2,4-triazole-3-carboxamide]
4.8	O=C(NCC1(Cc2cc(F)cc(F)c2)CCC1)c1ccc(=O)[nH]n1 [Example 176]
<4.57	COCc1ccccc1CC1(CNC(=O)c2nn(C)c(=O)[nH]2)CCC1 [Example 178]
<4.57	CCC(Cc1ccc(F)cc1F)CN(C)C(=O)c1nn(C)c(=O)[nH]1 (centres unmarked) [Example 179, N-(2-(2,4-difluorobenzyl)butyl)-N,1-dimethyl-5-oxo-4,5-dihydro-1H-1,2,4-triazole-3-carboxamide]
5.14	O=C(NCC1(Cc2ccc(F)cc2F)CCC1)c1nnc[nH]1 [Example 180]
5.02	CSc1cccc(CC2(CNC(=O)c3nn(C)c(=O)[nH]3)CCC2)c1 [Example 182]

mPTP Rat liver pIC50	Compound
5.4	O=C(NC[C@H](Cc1c(F)cc(F)cc1F)C1CC1)c1nccc(=O)[nH]1 [Example 183, (R)—N-(2-cyclopropyl-3-(2,4,6-trifluorophenyl)propyl)-6-oxo-1,6-dihydropyrimidine-2-carboxamide]
6.14	O=C(NCC1(Cc2ccc(F)cc2F)CCOCC1)c1cc(=O)[nH]o1 [Example 184]
6.34	O=C(NCC1(Cc2ccc(F)cc2F)CCOCC1)c1nccc(=O)[nH]1 [Example 185]
5.42	CC(c1ccc(F)cc1F)[C@@H](CNC(=O)c1nccc(=O)[nH]1)C1CC1 (stereo partly drawn) [Example 188, N-[(2S)-2-Cyclopropyl-3-(2,4-difluorophenyl)butyl]-4-oxo-3H-pyrimidine-2-carboxamide]
5.26	O=C(NC[C@H](Cc1c(F)cccc1F)C1CC1)c1nccc(=O)[nH]1 [Example 189]
5.72	O=C(NC[C@H](Cc1ccc(F)cc1F)C1CC1)c1ncc(F)c(=O)[nH]1 [Example 192]
6.36	Cn1nc(C(=O)NCC(Cc2ccc(F)cc2Cl)C2CC2)[nH]c1=O (centres unmarked) [Example 193, N-(3-(2-chloro-4-fluorophenyl)-2-cyclopropylpropyl)-1-methyl-5-oxo-4,5-dihydro-1H-1,2,4-triazole-3-carboxamide]
6.56	CC(NC(=O)c1nn(C)c(=O)[nH]1)[C@H](Cc1ccc(F)cc1F)C1CC1 (some centres unmarked) [Example 196]
<4.57	Cn1nc(C(=O)NCC2(Cc3ccc(F)cc3F)CCC(F)(F)CC2)[nH]c1=O [Example 197]
5.95	O=C(NCC1(Cc2ccc(F)cc2F)CCC1)c1nncc(=O)[nH]1 [Example 198, N-((1-(2,4-difluorobenzyl)cyclobutyl)methyl)-5-oxo-4,5-dihydro-1,2,4-triazine-3-carboxamide]
6.55	CCC(CC)(CNC(=O)c1nn(C)c(=O)[nH]1)Cc1ccc(F)cc1F [Example 199]
<4.57	Cc1cc(=O)[nH]c(C(=O)NCC2(Cc3ccc(F)cc3F)CCC2)n1 [Example 200]
<4.57	O=C(NCC1(Cc2ccc(F)cc2F)CCC1)c1cc(=O)[nH]s1 [Example 201]
5.61	O=C(NCC1(Cc2ccc(F)c(F)c2)CCC1)c1noc(=O)[nH]1 [Example 202, N-((1-(3,4-difluorobenzyl)cyclobutyl)methyl)-5-oxo-4,5-dihydro-1,2,4-oxadiazole-3-carboxamide]
6.53	O=C(NC[C@H](Cc1ccc(F)cc1F)C1CC1)c1noc(=O)[nH]1 [Example 204]
5.24	COCc1nnc(C(=O)NCC2(Cc3ccc(F)cc3F)CCC2)[nH]1 [Example 206]
<4.57	Cn1nc(C(=O)NCC2(Cc3ccc(F)cc3F)CCC2)nc1CO [Example 208]
5.96	CC[C@H](CNC(=O)c1noc(=O)[nH]1)Cc1ccc(F)cc1F [Example 209]
6.05	O=C(NCC1(Cc2ccc(F)cc2F)CCC1)c1n[nH]c(=O)o1 [Example 211]
6.18	Cn1nc(C(=O)NC[C@H](Cc2c(F)cccc2F)C2CC2)[nH]c1=O [Example 212]
<4.57	O=C(NCC1(Cc2ccc(F)cc2F)CCC1)c1cnc[nH]c1=O [Example 213, N-((1-(2,4-difluorobenzyl)cyclobutyl)methyl)-6-oxo-1,6-dihydropyrimidine-5-carboxamide]
<4.52	O=C(NCC(Cc1ccc(F)cc1Cl)C1CC1)c1nccc(=O)[nH]1 (centres unmarked) [Example 214]
5.56	Cn1nc(C(=O)NCC(Cc2c(F)cc(F)cc2Cl)C2CC2)[nH]c1=O (centres unmarked) [Example 220]

Compound	mPTP Rat liver pIC50
O=C(NCC1(Cc2ccc(F)cc2F)CC12CC2)c1nccc(=O)[nH]1 (centres unmarked) [Example 186]	6.58
CC(CNC(=O)c1nccc(=O)[nH]1)(Cc1ccc(F)cc1F)C1CC1 (centres unmarked) [Example 187]	6.53
Cn1nc(C(=O)NCC(C)(Cc2ccc(F)cc2F)C2CC2)[nH]c1=O (centres unmarked) [Example 210, N-(2-cyclopropyl-3-(2,4-difluorophenyl)-2-methylpropyl)-1-methyl-5-oxo-4,5-dihydro-1H-1,2,4-triazole-3-carboxamide]	6.82
O=C(NCC1(Cc2ccc(F)cc2F)CC(F)C1)c1nccc(=O)[nH]1 (centres unmarked) [Example 215]	6.34
